# Assay results reported in PubChem BioAssay (NCI).
#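 Method: 48-hour compound exposure of cells in 96-well plates, five concentrations, linear interpolation of endpoints. GI50 is the concentration that inhibits growth by half. At the TGI there is no net growth.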
# Columns and labels:
# Assay in all cases: NCI-60 cell line screen, 48 h
# MALME-3M melanoma = test system: MALME-3M melanoma
# SK-MEL-28 melanoma = test system: SK-MEL-28 melanoma
# T-47D breast = test system: T-47D breast
# HL-60(TB) leukemia = test system: HL-60(TB) leukemia
# NCI-H23 lung = test system: NCI-H23 lung
# IGROV1 ovarian = test system: IGROV1 ovarian
# MDA-N = test system: MDA-N
# NCI-H460 lung = test system: NCI-H460 lung
# OVCAR-3 ovarian = test system: OVCAR-3 ovarian
# UACC-62 melanoma = test system: UACC-62 melanoma
# COLO 205 colon = test system: COLO 205 colon
# U251 CNS = test system: U251 CNS
# SNB-19 CNS = test system: SNB-19 CNS
# HCT-116 colon = test system: HCT-116 colon
# UACC-257 melanoma = test system: UACC-257 melanoma
# SF-295 CNS = test system: SF-295 CNS
# K-562 leukemia = test system: K-562 leukemia
# MDA-MB-231 breast = test system: MDA-MB-231 breast
# 786-0 renal = test system: 786-0 renal
# MCF7 breast = test system: MCF7 breast
# MOLT-4 leukemia = test system: MOLT-4 leukemia
# KM12 colon = test system: KM12 colon
# CAKI-1 renal = test system: CAKI-1 renal
# M14 melanoma = test system: M14 melanoma
# NCI-H226 lung = test system: NCI-H226 lung
# SN12C renal = test system: SN12C renal
# MDA-MB-435 = test system: MDA-MB-435
# SR leukemia = test system: SR leukemia
# PC-3 prostate = test system: PC-3 prostate
# RXF 393 renal = test system: RXF 393 renal
# EKVX NSCLC = test system: EKVX NSCLC
# RPMI-8226 leukemia = test system: RPMI-8226 leukemia
# SK-MEL-2 melanoma = test system: SK-MEL-2 melanoma
# SK-OV-3 ovarian = test system: SK-OV-3 ovarian
# HCT-15 colon = test system: HCT-15 colon
# CCRF-CEM leukemia = test system: CCRF-CEM leukemia
# HT29 colon = test system: HT29 colon
# HOP-92 NSCLC = test system: HOP-92 NSCLC
# BT-549 breast = test system: BT-549 breast
# OVCAR-4 ovarian = test system: OVCAR-4 ovarian
# NCI/ADR-RES ovarian = test system: NCI/ADR-RES ovarian
# SF-539 CNS = test system: SF-539 CNS
# SNB-75 CNS = test system: SNB-75 CNS
# A549 NSCLC = test system: A549 NSCLC
# SK-MEL-5 melanoma = test system: SK-MEL-5 melanoma
# ACHN renal = test system: ACHN renal
# TK-10 renal = test system: TK-10 renal
# A498 renal = test system: A498 renal
# SF-268 CNS = test system: SF-268 CNS
# UO-31 renal = test system: UO-31 renal
# OVCAR-8 ovarian = test system: OVCAR-8 ovarian
# SW-620 colon = test system: SW-620 colon
# NCI-H522 lung = test system: NCI-H522 lung
# LOX IMVI melanoma = test system: LOX IMVI melanoma
# OVCAR-5 ovarian = test system: OVCAR-5 ovarian
# DU-145 prostate = test system: DU-145 prostate
smiles,measurement,setting,value
CCCCC[C@@H](C/C=C/CCC(=O)NC/C(=C/Cl)[C@H]1C(=O)C(C)(C)C(=O)[C@@H](C)[C@@]1(C)O)OC,GI50,MALME-3M melanoma,18.9 µM
same,TGI,MALME-3M melanoma,35.5 µM
same,GI50,SK-MEL-28 melanoma,18.1 µM
same,TGI,SK-MEL-28 melanoma,33.8 µM
same,GI50,T-47D breast,15.4 µM
same,TGI,T-47D breast,34.6 µM
same,GI50,HL-60(TB) leukemia,19.1 µM
same,TGI,HL-60(TB) leukemia,40.6 µM
same,GI50,NCI-H23 lung,17 µM
same,TGI,NCI-H23 lung,33.9 µM
same,GI50,IGROV1 ovarian,16.4 µM
same,TGI,IGROV1 ovarian,31.3 µM
same,GI50,MDA-N,18.4 µM
same,TGI,MDA-N,36.1 µM
same,GI50,NCI-H460 lung,17.7 µM
same,TGI,NCI-H460 lung,35.1 µM
same,GI50,OVCAR-3 ovarian,16.3 µM
same,TGI,OVCAR-3 ovarian,30.5 µM
same,GI50,UACC-62 melanoma,15.6 µM
same,TGI,UACC-62 melanoma,29.1 µM
same,GI50,COLO 205 colon,18.5 µM
same,TGI,COLO 205 colon,33.6 µM
same,GI50,U251 CNS,20.1 µM
same,TGI,U251 CNS,37.1 µM
same,GI50,SNB-19 CNS,20.3 µM
same,TGI,SNB-19 CNS,42 µM
same,GI50,HCT-116 colon,14 µM
same,TGI,HCT-116 colon,27.4 µM
same,GI50,UACC-257 melanoma,18.4 µM
same,TGI,UACC-257 melanoma,34.3 µM
same,GI50,SF-295 CNS,13.5 µM
same,TGI,SF-295 CNS,26.4 µM
same,GI50,K-562 leukemia,21.8 µM
same,TGI,K-562 leukemia,48.5 µM
same,GI50,MDA-MB-231 breast,16 µM
same,TGI,MDA-MB-231 breast,32.3 µM
same,GI50,786-0 renal,1.58 µM
same,TGI,786-0 renal,16.9 µM
same,GI50,MCF7 breast,19.2 µM
same,TGI,MCF7 breast,38.8 µM
same,GI50,MOLT-4 leukemia,21 µM
same,TGI,MOLT-4 leukemia,59.3 µM
same,GI50,KM12 colon,17.5 µM
same,TGI,KM12 colon,32.7 µM
same,GI50,CAKI-1 renal,18.2 µM
same,TGI,CAKI-1 renal,34.1 µM
same,GI50,M14 melanoma,16.9 µM
same,TGI,M14 melanoma,31.2 µM
same,GI50,NCI-H226 lung,18 µM
same,TGI,NCI-H226 lung,36.1 µM
same,GI50,SN12C renal,17.3 µM
same,TGI,SN12C renal,32 µM
same,GI50,MDA-MB-435,18.7 µM
same,TGI,MDA-MB-435,36.3 µM
same,GI50,SR leukemia,20.7 µM
same,TGI,SR leukemia,41.3 µM
same,GI50,PC-3 prostate,19.6 µM
same,TGI,PC-3 prostate,43.5 µM
same,GI50,RXF 393 renal,17.4 µM
same,TGI,RXF 393 renal,34.2 µM
same,GI50,EKVX NSCLC,13.5 µM
same,TGI,EKVX NSCLC,30.5 µM
same,GI50,RPMI-8226 leukemia,6.23 µM
same,TGI,RPMI-8226 leukemia,23 µM
same,GI50,SK-MEL-2 melanoma,17.3 µM
same,TGI,SK-MEL-2 melanoma,31.9 µM
same,GI50,SK-OV-3 ovarian,30.8 µM
same,TGI,SK-OV-3 ovarian,68.7 µM
same,GI50,HCT-15 colon,17.1 µM
same,TGI,HCT-15 colon,32 µM
same,GI50,CCRF-CEM leukemia,3.27 µM
same,TGI,CCRF-CEM leukemia,15.7 µM
same,GI50,HT29 colon,14.5 µM
same,TGI,HT29 colon,30.9 µM
same,GI50,HOP-92 NSCLC,19.2 µM
same,TGI,HOP-92 NSCLC,38.2 µM
same,GI50,BT-549 breast,17.9 µM
same,TGI,BT-549 breast,32.7 µM
same,GI50,OVCAR-4 ovarian,20 µM
same,TGI,OVCAR-4 ovarian,45.8 µM
same,GI50,NCI/ADR-RES ovarian,20.8 µM
same,TGI,NCI/ADR-RES ovarian,41.3 µM
same,GI50,SF-539 CNS,19.7 µM
same,TGI,SF-539 CNS,35.2 µM
same,GI50,SNB-75 CNS,20.5 µM
same,TGI,SNB-75 CNS,44.7 µM
same,GI50,A549 NSCLC,16.2 µM
same,TGI,A549 NSCLC,33.3 µM
same,GI50,SK-MEL-5 melanoma,17.3 µM
same,TGI,SK-MEL-5 melanoma,32.1 µM
same,GI50,ACHN renal,18 µM
same,TGI,ACHN renal,32.6 µM
same,GI50,TK-10 renal,20.8 µM
same,TGI,TK-10 renal,40.5 µM
same,GI50,A498 renal,26 µM
same,TGI,A498 renal,55 µM
same,GI50,SF-268 CNS,17.6 µM
same,TGI,SF-268 CNS,34.6 µM
same,GI50,UO-31 renal,15.4 µM
same,TGI,UO-31 renal,28.8 µM
same,GI50,OVCAR-8 ovarian,18.6 µM
same,TGI,OVCAR-8 ovarian,36.1 µM
same,GI50,SW-620 colon,20.8 µM
same,TGI,SW-620 colon,39.3 µM
same,GI50,NCI-H522 lung,13.9 µM
same,TGI,NCI-H522 lung,28 µM
same,GI50,LOX IMVI melanoma,18.8 µM
same,TGI,LOX IMVI melanoma,38 µM
same,GI50,OVCAR-5 ovarian,18.9 µM
same,TGI,OVCAR-5 ovarian,34.7 µM
same,GI50,DU-145 prostate,16.8 µM
same,TGI,DU-145 prostate,31.8 µM
